Measured values published in patent publication US20090062255A1, “TUMOR-TARGETING EVALUATION METHODOLOGY AND COMPOUNDS RELATED THERETO” (THALLION PHARMACEUTICALS INC., priority 2007, published 2009).

Experiments:
[1] = tested on: ERK phosphorylation, human pancreatic MiaPaCa-2 cell line (mutated K-Ras); test: EGF-stimulated ERK phosphorylation in MiaPaCa-2 cells; assay type: cell-based
Excerpt: To evaluate whether ECO-4601 interferes with K-Ras signalling, the human pancreatic MiaPaCa-2 cell line, a tumor cell line known to express mutated K-Ras, was employed.

[2] = tested on: GL26 glioblastoma cell line; test: MTT cytotoxicity, GL26 cell line; assay type: cell-based; conditions: 96 h, Human
Description: (§1) The cytotoxic activity of Compound 1 was further evaluated using a panel of brain tumor cell lines. This study was performed in collaboration with INSERM (Grenoble, France). Tumor cells (5,000 to 10,000 cells per well depending on their doubling time) were plated in 96-well flat-bottom plates and incubated for 24 hours before treatment. Tumor cells were then incubated for 96 hours with seven different concentrations of Compound 1: […], 0.01, and 0.001 μM. The in vitro cytotoxic activity was determined by a standard MTT assay.

human MAPK1 (ERK1) = target: T1, human MAPK1 (ERK1) (Homo sapiens, UniProt P27361); test: Upstate Kinase Profiler, MAPK1 (ERK1); assay type: biochemical
T1 construct: purchased Upstate (Kinase Profiler Service; Dundee, UK)
Description: (§2) Unlike current Ras signalling pathway inhibitors, ECO-4601 is not a direct kinase inhibitor. This was documented by evaluating the effect of ECO-4601 on human EGFR, c-RAF, MEK1, MAPK1 (ERK1) and MAPK2 (ERK2) kinase-activity (Upstate Kinase Profiler™ Service; Dundee, UK). ECO-4601 was tested at 0.5 μM and 5 μM in a final volume of 25 μL according to standard protocols developed by Upstate Ltd. Briefly, purified recombinant human enzymes were incubated with 25 mM Tris pH 7.5 containing EGTA, a specific substrate and γ-^32P-ATP. The reaction was initiated with MgATP mix and incubated for 40 minutes at RT. The reaction was stopped by the addition of 5 μL of a 3% phosphoric acid solution; aliquots were spotted on filters and counted. Detailed procedures are available on the Millipore Upstate website.

[3] = tested on: human uterine sarcoma MES-SA; test: Growth inhibitory MTT assay, MES-SA; assay type: cell-based; conditions: 72 hours, treated over control
Description: (§3) Growth inhibitory activity of ECO-4601 (Compound 1) and other dibenzodiazepinone analogs was evaluated on a panel of 4 human tumor cell lines: the human uterine sarcoma MES-SA and its doxorubicin-resistant P-glycoprotein over-expressing variant, MES-SA/DX5 as well as non-aggressive and highly aggressive human breast cell lines, MCF-7 and MDA-MB-231, respectively. These four cell lines were obtained from the American Type Culture Collection (Manassas, Va.) and cultured in RPMI plus 10% fetal bovine serum (FBS) and maintained at 37° C. with 5% CO2.
(§4) Exponentially growing cells (5,000 cells per well time; cell number determined with a hemocytometer) were seeded in 96-well flat-bottom plates and allowed to grow overnight. Cells were then incubated for 72 hours with three different concentrations of ECO-4601 or analogs: 30,10, and 3 μM. The in vitro growth inhibitory activity was determined by a commercial MTT assay. All measurements were done in quadruplicate and each experiment was performed 2-3 times. The lower the value, the more cytotoxic is the compound.

[4] = tested on: human breast cell line MCF-7; test: Growth inhibitory MTT assay, MCF-7; assay type: cell-based; conditions: 72 hours, treated over control
Description: as §3, §4

[5] = tested on: MES-SA/DX5 (doxorubicin-resistant P-glycoprotein over-expressing variant); test: Growth inhibitory MTT assay, MES-SA/DX5; assay type: cell-based, human; conditions: 72 hours, treated over control
Description: as §3, §4

[6] = tested on: C6 glioblastoma cell line; test: MTT cytotoxicity, C6 cell line; assay type: cell-based; conditions: 96 h, Rat
Description: as §1

brain tumor cell lines = test: MTT cytotoxicity, panel of brain tumor cell lines (summary); assay type: cell-based; conditions: 96 hours; read-out: IC50 values against brain tumor cell lines, range
Description: as §1

PBR = target: T2, PBR (Rattus norvegicus, UniProt P16257); test: In vivo PBR occupancy by PET (11C-(R)-PK11195) following IP administration; conditions: 30 mg/kg IP, 30 min before scan, mean±S.D.
T2 construct: from tissue; host or cells: orthotopic rat C6 glioma in Sprague-Dawley rats, in vivo
Description: (R)-1-(2-chlorophenyl)-N-methyl-N-(1-methyl-propyl)-3-isoquinoline carboxamide (R N-desmethyl PK11195), the precursor for the radioisotope-labeled (R) —PK11195, was purchased from ABX (Radeburg, Germany). The synthesis of ^11C-(R)-PK11195 was accomplished by a modification of the method of Camsonne et al. (J. Label. Compd. Radiopharm., 21: 985-991,1984). Briefly, ^11C-methyl iodide (^11C—CH3I) was transferred by a stream of nitrogen gas at a flow rate of 10 ml/min into a reaction medium containing 1 mg or R—N-desmethyl PK11195 previously dissolved in 0.5 mL of dimethylsulfoxide (DMSO) and about 20 mg of sodium hydroxide. The reaction was initiated at room temperature, with a bubbling of the ^11C—CH3I being continued over a 5 minute period. After bubbling was complete, the reaction mixture was left standing for 5 minutes. Purification was performed by high pressure liquid chromatography (HPLC) using a reverse-phase C18 column and a methanol:ammonium formate (20 mM) (80:20) mixture and a mobile phase at a flow rate of 3 mL/min. ^11C—(R) —PK11195 was eluted at 11 minutes and obtained with a specific radioactivity of […].
In vivo PET studies were performed 14 days post tumor implantation. […] Attenuation correction factors, for each rat (total of 7 animals), were determined using a 10 min ^57Co transmission scan acquired immediately prior to the dynamic scan. […]

human c-RAF = target: T3, human c-RAF (Homo sapiens, UniProt P04049); test: Upstate Kinase Profiler, c-RAF; assay type: biochemical
T3 construct: purchased Upstate (Kinase Profiler Service; Dundee, UK)
Description: as §2

T1 sequence (P27361 whole entry): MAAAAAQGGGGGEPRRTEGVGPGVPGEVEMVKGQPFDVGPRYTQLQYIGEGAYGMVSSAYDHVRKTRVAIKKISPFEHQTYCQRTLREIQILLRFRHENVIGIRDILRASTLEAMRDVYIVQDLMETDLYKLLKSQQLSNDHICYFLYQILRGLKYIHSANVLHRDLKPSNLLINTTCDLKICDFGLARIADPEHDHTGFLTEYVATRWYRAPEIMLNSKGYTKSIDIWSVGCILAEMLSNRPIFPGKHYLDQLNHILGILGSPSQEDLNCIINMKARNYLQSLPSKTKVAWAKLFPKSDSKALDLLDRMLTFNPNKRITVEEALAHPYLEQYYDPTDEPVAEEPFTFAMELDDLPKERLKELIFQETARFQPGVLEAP
T3 sequence (P04049 whole entry): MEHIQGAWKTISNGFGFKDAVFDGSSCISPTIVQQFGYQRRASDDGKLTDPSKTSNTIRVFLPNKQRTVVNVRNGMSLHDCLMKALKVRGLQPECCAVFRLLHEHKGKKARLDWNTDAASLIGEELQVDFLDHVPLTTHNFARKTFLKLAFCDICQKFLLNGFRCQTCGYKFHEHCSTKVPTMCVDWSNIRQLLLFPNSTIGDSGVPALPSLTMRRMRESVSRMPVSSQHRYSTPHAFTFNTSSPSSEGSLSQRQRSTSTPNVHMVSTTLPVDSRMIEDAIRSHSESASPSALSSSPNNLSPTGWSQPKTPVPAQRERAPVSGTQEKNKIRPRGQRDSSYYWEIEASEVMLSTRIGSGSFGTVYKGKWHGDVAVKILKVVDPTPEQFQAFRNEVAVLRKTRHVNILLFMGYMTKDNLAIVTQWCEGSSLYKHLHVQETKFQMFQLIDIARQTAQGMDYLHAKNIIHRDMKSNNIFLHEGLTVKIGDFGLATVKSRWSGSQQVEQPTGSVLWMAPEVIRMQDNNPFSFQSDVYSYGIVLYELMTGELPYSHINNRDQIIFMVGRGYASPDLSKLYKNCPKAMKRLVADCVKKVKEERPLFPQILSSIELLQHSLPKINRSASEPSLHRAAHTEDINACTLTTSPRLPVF

**Q.** How did the “inhibition of EGF-stimulated ERK phosphorylation” value [1] turn out when `CC(C)=CCC/C(C)=C/CC/C(C)=C/CN1C(=O)c2cccc(O)c2Nc2c(O)cc(O)cc21` [Compound 1, 10-farnesyl-4,6,8-trihydroxy-5,10-dihydrodibenzo[b,e][1,4]diazepin-11-one] was run?
**A.** dose and time dependent inhibition

**Q.** And the IC50 [2]?
**A.** 8.9 ± 1.1 µM

**Q.** What about the “direct inhibition of ERK1 kinase activity (in words)” value (human MAPK1 (ERK1); 0.5 μM and 5 μM) of the same molecule?
**A.** does not directly inhibit

**Q.** What about the activity at 0.5 µM (human MAPK1 (ERK1); MAPK1 (ERK1), 0.5 μM, % of enzyme activity over positive control, read-out: Kinase Activity (%) ± SD) of the same molecule?
**A.** 97 ± 2%

**Q.** And the activity at 5 µM (human MAPK1 (ERK1); MAPK1 (ERK1), 5 μM, % of enzyme activity over positive control, read-out: Kinase Activity (%) ± SD)?
**A.** 73 ± 3%

**Q.** And the “% T/C at 10 μM” value [3]?
**A.** 78%

**Q.** And the “% T/C at 10 μM” value [4]?
**A.** 44%

**Q.** And the “% T/C at 10 μM” value [5]?
**A.** 100%

**Q.** And the IC50 [6]?
**A.** 4.3 ± 2.3 µM

**Q.** What about the IC50 (brain tumor cell lines) of the same molecule?
**A.** 1.6 to 8.9 µM

**Q.** What about the “mean tumor binding potential (B.P.) after compound” value (PBR) of the same molecule?
**A.** 1.05±0.34

**Q.** And the “direct inhibition of c-Raf kinase activity (in words)” value (human c-RAF; 0.5 μM and 5 μM)?
**A.** does not directly inhibit

**Q.** What about the activity at 0.5 µM (human c-RAF; c-Raf, 0.5 μM, % of enzyme activity over positive control, read-out: Kinase Activity (%) ± SD) of the same molecule?
**A.** 114 ± 12%

**Q.** And the activity at 5 µM (human c-RAF; c-Raf, 5 μM, % of enzyme activity over positive control, read-out: Kinase Activity (%) ± SD)?
**A.** 94 ± 2%
